How the values were obtained:
[1] = target: T1, Alpha-1A adrenergic receptor (Homo sapiens, UniProt P35348); type: functional, cell-based
T1 sequence (P35348 whole entry): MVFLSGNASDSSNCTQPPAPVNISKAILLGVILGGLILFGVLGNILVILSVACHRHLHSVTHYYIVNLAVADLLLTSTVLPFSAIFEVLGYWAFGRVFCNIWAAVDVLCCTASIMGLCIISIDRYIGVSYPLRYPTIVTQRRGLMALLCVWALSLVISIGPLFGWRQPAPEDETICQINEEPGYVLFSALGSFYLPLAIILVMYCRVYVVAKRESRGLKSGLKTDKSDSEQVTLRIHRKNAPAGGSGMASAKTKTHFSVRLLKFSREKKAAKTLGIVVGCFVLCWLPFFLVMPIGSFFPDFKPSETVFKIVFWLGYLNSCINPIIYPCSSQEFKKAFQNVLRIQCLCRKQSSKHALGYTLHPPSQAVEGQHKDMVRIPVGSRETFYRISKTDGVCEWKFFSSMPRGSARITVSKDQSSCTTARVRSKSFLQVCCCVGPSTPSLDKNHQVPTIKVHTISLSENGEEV

D(1A) dopamine receptor [2] = target: T2, D(1A) dopamine receptor (Homo sapiens, UniProt P21728)
[3] = target: T3, Amine oxidase [flavin-containing] A (Homo sapiens, UniProt P21397); type: functional
T3 sequence (P21397 whole entry): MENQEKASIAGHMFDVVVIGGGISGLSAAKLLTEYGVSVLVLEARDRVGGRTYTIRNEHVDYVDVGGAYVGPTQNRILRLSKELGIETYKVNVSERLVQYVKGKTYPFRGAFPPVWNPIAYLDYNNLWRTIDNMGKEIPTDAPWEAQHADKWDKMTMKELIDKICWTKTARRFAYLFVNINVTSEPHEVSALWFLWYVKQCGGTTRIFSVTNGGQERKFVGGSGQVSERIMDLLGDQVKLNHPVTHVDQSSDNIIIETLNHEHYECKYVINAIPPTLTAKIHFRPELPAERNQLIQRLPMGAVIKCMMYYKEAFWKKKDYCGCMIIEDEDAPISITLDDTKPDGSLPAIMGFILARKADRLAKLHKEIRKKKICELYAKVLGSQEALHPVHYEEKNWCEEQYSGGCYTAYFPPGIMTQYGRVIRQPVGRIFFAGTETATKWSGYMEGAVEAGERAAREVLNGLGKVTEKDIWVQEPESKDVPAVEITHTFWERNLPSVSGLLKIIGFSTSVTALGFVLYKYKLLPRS

[4] = target: 3',5'-cyclic-AMP phosphodiesterase 4A (Homo sapiens, UniProt P27815); type: functional
[5] = target: Prostaglandin G/H synthase 1 (Homo sapiens, UniProt P23219); type: functional
[6] = target: T1, Alpha-1A adrenergic receptor; type: functional, cell-based; remark: listed apart in the source
[7] = target: T4, Alpha-2B adrenergic receptor (Homo sapiens, UniProt P18089)
T4 sequence (P18089 whole entry): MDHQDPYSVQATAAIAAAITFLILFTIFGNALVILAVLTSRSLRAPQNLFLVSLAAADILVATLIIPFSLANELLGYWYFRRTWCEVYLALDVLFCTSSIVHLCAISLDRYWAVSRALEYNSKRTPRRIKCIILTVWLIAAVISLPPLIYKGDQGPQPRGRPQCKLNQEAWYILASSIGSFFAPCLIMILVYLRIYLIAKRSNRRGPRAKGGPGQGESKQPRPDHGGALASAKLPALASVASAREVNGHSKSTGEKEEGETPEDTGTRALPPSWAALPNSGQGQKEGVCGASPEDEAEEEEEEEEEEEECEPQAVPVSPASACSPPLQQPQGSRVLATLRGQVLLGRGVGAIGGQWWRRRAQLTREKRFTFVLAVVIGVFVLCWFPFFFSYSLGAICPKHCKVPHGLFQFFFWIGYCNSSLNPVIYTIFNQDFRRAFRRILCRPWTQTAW

[8] = target: T5, Alpha-2C adrenergic receptor (Homo sapiens, UniProt P18825); type: functional
T5 sequence (P18825 whole entry): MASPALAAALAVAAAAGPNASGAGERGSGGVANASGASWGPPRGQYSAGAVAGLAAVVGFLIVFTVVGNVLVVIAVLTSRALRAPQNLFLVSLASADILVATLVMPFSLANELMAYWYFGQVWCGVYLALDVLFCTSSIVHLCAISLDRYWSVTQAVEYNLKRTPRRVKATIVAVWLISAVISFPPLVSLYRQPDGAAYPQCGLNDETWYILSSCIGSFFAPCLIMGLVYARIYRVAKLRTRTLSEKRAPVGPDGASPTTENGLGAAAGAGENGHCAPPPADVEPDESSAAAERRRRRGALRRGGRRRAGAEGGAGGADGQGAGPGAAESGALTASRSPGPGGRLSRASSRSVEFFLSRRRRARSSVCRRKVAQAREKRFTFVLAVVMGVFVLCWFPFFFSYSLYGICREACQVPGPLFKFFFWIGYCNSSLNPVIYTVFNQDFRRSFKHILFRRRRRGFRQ

[9] = target: Muscarinic acetylcholine receptor M3 (Homo sapiens, UniProt P20309)
Cannabinoid receptor 1 = Cannabinoid receptor 1 (Homo sapiens, UniProt P21554); type: functional, cell-based
D(1A) dopamine receptor [10] = target: T2, D(1A) dopamine receptor; type: functional, cell-based
[11] = target: Gamma-aminobutyric acid receptor subunit alpha-1 (Rattus norvegicus, UniProt P62813); type: functional
Histamine H1 receptor = Histamine H1 receptor (Homo sapiens, UniProt P35367)
Histamine H2 receptor = Histamine H2 receptor (Homo sapiens, UniProt P25021); type: functional, cell-based
[12] = target: 5-hydroxytryptamine receptor 2A (Homo sapiens, UniProt P28223); type: functional, cell-based
[13] = target: Kappa-type opioid receptor (Homo sapiens, UniProt P41145)

Measured: AC50
Also: assay procedure not described here.

T2 sequence (P21728 whole entry): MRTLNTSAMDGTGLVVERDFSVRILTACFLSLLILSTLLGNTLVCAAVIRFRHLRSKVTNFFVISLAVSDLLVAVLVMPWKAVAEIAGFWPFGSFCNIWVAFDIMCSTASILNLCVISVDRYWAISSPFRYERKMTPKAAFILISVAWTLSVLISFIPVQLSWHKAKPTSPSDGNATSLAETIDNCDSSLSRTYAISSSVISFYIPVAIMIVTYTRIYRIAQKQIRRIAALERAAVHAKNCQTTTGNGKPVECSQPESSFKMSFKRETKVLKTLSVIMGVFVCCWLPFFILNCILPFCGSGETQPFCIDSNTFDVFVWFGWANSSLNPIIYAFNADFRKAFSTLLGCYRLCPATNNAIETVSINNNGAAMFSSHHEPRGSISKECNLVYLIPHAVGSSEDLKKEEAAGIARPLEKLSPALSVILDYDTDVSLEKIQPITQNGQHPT
Sequence of 5-hydroxytryptamine receptor 2A (P28223 whole entry): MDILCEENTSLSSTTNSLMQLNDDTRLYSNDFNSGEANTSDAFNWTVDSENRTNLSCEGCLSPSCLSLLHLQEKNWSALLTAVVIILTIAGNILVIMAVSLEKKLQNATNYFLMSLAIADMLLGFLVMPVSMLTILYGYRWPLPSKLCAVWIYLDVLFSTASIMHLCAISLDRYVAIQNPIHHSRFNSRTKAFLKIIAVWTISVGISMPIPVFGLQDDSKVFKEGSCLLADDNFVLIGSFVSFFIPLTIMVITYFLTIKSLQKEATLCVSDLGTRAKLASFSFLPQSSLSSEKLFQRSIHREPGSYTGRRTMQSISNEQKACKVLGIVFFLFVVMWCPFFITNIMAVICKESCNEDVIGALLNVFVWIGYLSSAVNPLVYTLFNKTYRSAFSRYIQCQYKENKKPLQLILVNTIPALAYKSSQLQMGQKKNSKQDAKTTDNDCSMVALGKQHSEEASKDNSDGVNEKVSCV
Sequence of Kappa-type opioid receptor (P41145 whole entry): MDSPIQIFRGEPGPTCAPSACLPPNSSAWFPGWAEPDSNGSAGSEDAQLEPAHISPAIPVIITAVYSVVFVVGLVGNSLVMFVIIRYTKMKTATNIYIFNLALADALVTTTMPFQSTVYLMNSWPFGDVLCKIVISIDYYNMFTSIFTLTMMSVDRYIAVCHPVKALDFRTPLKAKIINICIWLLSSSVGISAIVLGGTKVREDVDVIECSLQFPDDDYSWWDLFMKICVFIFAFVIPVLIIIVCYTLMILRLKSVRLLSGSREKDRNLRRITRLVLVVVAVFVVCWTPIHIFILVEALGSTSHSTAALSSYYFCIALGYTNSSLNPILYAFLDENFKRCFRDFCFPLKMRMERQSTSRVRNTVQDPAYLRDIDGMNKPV
Sequence of Cannabinoid receptor 1 (P21554 whole entry): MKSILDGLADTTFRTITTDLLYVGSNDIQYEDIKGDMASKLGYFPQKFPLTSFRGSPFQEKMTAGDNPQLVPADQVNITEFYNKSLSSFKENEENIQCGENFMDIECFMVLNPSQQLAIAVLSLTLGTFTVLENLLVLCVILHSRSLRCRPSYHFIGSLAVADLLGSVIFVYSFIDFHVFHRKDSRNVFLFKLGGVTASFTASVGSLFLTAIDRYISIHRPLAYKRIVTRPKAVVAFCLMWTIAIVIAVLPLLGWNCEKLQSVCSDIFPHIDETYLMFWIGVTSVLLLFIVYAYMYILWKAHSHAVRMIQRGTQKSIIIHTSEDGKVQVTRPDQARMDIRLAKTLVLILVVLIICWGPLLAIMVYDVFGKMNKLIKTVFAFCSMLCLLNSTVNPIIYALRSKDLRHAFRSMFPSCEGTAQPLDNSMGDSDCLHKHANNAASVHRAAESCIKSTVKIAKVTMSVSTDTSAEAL
Sequence of Histamine H1 receptor (P35367 whole entry): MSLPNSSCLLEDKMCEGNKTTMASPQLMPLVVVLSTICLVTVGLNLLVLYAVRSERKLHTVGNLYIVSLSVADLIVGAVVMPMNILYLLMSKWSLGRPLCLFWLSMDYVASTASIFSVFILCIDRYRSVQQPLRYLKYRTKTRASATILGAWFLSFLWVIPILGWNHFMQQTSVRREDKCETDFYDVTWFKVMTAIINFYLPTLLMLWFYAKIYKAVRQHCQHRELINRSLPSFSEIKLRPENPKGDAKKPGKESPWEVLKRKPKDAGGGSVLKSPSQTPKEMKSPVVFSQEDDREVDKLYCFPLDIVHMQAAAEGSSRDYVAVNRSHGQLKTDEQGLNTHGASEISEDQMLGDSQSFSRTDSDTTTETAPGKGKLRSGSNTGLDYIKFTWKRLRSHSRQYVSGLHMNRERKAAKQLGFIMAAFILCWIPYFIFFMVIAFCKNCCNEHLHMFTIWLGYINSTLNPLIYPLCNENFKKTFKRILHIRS
Sequence of Gamma-aminobutyric acid receptor subunit alpha-1 (P62813 whole entry): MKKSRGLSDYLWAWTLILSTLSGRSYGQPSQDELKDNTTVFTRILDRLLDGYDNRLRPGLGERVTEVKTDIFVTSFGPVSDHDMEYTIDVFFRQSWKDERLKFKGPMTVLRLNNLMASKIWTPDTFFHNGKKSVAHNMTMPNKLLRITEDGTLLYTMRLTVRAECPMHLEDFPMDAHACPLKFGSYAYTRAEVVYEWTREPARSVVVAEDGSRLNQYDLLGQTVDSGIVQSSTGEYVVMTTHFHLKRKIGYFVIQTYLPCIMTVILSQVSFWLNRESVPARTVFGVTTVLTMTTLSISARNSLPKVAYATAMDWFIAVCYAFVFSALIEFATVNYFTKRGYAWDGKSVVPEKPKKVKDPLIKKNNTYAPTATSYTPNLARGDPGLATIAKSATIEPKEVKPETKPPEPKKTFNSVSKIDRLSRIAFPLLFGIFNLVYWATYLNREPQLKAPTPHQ
Sequence of Muscarinic acetylcholine receptor M3 (P20309 whole entry): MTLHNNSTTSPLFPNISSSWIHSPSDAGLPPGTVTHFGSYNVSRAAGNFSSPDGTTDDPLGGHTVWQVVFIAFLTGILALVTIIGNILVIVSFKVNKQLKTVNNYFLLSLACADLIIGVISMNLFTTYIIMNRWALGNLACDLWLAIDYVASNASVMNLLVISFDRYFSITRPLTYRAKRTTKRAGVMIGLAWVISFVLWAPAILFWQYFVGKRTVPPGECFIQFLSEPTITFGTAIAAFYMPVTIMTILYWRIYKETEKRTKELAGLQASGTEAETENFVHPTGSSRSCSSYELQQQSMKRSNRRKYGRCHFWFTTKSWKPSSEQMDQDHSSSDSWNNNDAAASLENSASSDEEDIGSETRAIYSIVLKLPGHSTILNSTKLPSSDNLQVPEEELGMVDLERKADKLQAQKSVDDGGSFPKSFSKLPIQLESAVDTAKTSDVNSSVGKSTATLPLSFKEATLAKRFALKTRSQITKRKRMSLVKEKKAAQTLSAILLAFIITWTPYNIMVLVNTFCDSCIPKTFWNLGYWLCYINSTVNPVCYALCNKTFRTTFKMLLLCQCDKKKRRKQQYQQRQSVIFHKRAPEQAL
Sequence of Histamine H2 receptor (P25021 whole entry): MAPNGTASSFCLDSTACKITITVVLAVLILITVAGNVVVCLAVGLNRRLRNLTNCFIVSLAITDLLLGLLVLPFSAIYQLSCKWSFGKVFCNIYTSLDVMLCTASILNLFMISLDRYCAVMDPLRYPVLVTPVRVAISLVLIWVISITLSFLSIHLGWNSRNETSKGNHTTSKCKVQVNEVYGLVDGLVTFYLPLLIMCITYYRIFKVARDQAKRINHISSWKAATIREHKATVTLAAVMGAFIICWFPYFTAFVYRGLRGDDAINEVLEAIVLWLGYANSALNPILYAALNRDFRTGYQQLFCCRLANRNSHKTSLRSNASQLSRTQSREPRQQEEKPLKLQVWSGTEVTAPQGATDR
Sequence of 3',5'-cyclic-AMP phosphodiesterase 4A (P27815 whole entry): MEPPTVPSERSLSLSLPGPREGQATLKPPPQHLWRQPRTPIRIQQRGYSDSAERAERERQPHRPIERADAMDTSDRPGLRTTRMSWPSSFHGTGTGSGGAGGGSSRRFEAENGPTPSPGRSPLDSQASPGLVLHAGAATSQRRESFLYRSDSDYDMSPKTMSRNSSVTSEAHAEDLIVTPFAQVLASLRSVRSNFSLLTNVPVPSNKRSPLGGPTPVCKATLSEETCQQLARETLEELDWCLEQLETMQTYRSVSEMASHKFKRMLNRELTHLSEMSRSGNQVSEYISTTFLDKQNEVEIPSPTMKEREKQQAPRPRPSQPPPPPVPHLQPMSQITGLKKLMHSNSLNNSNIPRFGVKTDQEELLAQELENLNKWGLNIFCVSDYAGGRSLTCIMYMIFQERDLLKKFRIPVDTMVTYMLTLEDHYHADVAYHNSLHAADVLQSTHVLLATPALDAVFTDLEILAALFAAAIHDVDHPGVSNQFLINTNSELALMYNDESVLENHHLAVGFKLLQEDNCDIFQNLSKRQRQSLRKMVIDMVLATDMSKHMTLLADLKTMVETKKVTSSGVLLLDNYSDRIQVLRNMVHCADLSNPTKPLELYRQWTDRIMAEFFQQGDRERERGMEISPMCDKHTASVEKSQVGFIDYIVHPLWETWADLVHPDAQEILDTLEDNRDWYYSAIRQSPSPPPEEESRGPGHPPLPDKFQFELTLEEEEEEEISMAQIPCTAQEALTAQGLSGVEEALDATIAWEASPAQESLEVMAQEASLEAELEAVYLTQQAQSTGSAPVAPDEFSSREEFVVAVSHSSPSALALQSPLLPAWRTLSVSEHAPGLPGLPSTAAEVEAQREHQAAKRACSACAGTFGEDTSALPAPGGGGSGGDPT

CN(C)C(=O)Oc1cccc([N+](C)(C)C)c1 [NEOSTIGMINE]
> 30 µM: [1] | D(1A) dopamine receptor [2] | [3] | [4] | [5]

CCN(CC)C(=O)C1(c2ccccc2)CC1CN (stereo unspecified)
> 30 µM: [6] | [7] | [8] | [9] | Cannabinoid receptor 1 | D(1A) dopamine receptor [10] | [11] | Histamine H1 receptor | Histamine H2 receptor | [12] | [13]
